The values below come from BindingDB's records for doi:10.1016/0014-2999(89)90363-4 (Novo Industri, 1989).

“And” between values parts separate entries of the source, which are not always exact repeats. Equal values may be shown once. Where a name gives a salt, the structure may show the parent alone. Bounds are passed on as bounds.

Among the targets are Histamine H1 receptor (Rattus norvegicus, UniProt P31390); D(2) dopamine receptor (Rattus norvegicus, UniProt P61169); D(1A) dopamine receptor (Rattus norvegicus, UniProt P18901).
The target in assay [1] is Norepinephrine transporter (Rattus norvegicus, UniProt Q9JIA2).
Assay [2] has as its target Sodium-dependent serotonin transporter (Rattus norvegicus, UniProt P31652).
For assay [3], the target named is T1, Alpha-2C adrenergic receptor (Rattus norvegicus, UniProt P22086).
T1 sequence (P22086 whole entry): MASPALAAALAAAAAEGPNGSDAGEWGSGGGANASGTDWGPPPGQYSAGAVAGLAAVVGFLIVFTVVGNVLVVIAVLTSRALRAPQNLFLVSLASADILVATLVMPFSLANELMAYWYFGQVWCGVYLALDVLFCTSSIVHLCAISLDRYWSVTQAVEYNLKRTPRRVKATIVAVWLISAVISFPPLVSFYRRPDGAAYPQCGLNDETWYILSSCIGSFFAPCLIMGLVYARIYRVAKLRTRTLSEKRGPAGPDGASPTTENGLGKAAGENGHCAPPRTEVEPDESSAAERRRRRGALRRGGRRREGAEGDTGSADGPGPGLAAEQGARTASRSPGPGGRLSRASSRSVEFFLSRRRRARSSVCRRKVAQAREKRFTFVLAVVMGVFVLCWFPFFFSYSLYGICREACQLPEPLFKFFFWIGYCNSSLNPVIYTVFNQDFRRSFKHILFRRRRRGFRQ

For assay [4], the target named is Gamma-aminobutyric acid receptor subunit alpha-1 (Rattus norvegicus, UniProt P62813).
Gamma-aminobutyric acid receptor subunit alpha-1, sequence (P62813 whole entry): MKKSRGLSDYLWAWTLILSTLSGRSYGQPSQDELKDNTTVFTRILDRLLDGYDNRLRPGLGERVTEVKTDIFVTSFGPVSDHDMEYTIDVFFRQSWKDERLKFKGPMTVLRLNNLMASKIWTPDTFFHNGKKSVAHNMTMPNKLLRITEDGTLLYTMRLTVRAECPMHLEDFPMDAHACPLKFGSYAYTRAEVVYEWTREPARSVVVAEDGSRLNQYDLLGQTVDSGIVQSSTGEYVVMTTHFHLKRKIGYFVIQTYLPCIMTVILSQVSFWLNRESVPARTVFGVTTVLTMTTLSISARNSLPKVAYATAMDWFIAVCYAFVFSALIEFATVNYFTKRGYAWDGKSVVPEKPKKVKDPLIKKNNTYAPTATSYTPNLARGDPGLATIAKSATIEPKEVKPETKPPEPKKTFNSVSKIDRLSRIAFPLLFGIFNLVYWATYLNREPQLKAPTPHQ
For assay [5], the target named is 5-hydroxytryptamine receptor 2A (Rattus norvegicus, UniProt P14842).
5-hydroxytryptamine receptor 2A, sequence (P14842 whole entry): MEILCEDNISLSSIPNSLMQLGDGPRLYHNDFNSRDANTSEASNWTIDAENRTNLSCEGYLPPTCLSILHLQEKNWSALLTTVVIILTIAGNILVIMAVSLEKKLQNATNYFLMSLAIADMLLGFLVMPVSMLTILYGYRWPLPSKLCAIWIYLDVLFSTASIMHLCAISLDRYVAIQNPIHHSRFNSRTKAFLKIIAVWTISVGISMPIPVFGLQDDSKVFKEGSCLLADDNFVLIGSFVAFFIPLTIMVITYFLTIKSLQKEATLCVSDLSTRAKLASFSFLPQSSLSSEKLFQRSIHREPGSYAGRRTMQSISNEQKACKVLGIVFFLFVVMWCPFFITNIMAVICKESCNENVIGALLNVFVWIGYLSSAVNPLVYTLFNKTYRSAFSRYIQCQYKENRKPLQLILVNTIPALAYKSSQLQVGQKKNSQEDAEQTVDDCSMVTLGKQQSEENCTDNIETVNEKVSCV
In assay [6] the target is Beta-1 adrenergic receptor (Rattus norvegicus, UniProt P18090).
Beta-1 adrenergic receptor, sequence (P18090 whole entry): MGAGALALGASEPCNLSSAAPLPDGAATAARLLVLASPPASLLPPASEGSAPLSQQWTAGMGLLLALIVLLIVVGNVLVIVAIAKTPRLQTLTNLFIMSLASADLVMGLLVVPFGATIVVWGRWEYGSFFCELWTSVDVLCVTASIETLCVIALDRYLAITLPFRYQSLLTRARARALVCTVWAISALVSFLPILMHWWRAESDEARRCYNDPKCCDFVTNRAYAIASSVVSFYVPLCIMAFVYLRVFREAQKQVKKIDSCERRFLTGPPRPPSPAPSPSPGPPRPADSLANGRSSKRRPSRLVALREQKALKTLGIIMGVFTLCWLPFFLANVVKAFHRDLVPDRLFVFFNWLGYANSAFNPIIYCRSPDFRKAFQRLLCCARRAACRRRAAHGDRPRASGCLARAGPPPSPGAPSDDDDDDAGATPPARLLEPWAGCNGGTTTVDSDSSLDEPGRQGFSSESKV
The target in assay [7] is T2, Muscarinic acetylcholine receptor M2 (Rattus norvegicus, UniProt P10980).
T2 sequence (P10980 whole entry): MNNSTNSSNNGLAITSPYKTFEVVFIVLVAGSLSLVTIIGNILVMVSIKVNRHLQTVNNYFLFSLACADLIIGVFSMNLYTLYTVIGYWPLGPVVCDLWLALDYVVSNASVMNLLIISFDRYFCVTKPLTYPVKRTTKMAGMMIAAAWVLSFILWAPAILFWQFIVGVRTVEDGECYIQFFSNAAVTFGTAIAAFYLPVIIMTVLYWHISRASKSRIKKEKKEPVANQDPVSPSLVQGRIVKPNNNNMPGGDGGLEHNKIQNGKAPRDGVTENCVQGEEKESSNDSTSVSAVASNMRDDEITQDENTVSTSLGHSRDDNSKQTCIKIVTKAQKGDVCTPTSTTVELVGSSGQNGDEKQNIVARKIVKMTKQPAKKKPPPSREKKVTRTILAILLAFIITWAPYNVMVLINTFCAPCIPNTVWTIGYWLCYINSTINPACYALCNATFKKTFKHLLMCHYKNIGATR

Assay [8] addresses T3, 5-hydroxytryptamine receptor 1A (Rattus norvegicus, UniProt P19327).
T3 sequence (P19327 whole entry): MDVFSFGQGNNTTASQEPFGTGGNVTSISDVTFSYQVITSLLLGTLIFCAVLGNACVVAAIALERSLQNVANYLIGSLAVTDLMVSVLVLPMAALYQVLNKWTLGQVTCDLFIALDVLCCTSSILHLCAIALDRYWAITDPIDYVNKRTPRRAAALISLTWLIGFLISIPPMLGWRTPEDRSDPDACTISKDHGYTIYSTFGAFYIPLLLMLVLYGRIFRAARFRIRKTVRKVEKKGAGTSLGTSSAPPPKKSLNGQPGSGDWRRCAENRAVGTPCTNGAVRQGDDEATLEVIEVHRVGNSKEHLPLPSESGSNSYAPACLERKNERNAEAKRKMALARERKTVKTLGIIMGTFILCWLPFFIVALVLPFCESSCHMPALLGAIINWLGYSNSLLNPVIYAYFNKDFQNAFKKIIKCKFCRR

The target of assay [9] is T4, Alpha-1A adrenergic receptor (Rattus norvegicus, UniProt P43140).
T4 sequence (P43140 whole entry): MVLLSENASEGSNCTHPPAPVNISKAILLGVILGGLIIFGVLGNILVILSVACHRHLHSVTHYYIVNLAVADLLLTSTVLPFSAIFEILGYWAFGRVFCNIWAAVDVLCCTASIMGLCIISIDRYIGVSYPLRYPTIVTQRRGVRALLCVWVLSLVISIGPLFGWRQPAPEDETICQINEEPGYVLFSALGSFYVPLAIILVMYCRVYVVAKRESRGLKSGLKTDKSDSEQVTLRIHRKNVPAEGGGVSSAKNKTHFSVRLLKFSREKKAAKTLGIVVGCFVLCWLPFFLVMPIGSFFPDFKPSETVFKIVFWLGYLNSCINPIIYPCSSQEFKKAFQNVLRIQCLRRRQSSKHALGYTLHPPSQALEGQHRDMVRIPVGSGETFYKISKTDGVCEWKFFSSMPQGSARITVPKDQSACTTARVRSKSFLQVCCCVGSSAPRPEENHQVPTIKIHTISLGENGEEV

D(1A) dopamine receptor, sequence (P18901 whole entry): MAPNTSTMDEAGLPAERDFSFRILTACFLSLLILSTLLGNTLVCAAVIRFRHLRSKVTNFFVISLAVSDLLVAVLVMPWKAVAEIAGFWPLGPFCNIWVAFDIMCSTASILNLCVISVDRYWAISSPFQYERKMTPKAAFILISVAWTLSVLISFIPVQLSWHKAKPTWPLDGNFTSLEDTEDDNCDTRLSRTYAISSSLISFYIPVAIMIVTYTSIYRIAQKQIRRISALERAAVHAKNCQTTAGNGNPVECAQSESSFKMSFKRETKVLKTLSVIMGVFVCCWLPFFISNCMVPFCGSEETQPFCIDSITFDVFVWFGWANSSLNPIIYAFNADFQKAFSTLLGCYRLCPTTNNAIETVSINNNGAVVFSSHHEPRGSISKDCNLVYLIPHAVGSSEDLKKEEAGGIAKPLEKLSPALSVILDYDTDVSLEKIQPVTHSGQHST
Sodium-dependent serotonin transporter, sequence (P31652 whole entry): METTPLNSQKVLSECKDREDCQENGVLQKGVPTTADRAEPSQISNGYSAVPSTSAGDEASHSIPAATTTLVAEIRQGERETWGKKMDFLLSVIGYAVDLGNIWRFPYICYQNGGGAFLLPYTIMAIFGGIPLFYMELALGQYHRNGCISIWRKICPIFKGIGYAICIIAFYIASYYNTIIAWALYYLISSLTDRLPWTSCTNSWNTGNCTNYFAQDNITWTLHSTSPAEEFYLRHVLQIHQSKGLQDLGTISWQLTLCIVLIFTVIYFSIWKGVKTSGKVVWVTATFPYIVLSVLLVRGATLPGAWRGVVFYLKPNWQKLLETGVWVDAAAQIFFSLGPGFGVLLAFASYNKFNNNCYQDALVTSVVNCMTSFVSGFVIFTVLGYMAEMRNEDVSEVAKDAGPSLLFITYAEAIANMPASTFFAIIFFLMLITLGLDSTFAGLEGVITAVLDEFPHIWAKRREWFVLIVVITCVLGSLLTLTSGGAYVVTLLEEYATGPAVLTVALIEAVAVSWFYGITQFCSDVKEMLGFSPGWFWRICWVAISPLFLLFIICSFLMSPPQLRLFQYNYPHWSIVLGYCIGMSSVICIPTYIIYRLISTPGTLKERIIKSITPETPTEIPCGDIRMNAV
Histamine H1 receptor, sequence (P31390 whole entry): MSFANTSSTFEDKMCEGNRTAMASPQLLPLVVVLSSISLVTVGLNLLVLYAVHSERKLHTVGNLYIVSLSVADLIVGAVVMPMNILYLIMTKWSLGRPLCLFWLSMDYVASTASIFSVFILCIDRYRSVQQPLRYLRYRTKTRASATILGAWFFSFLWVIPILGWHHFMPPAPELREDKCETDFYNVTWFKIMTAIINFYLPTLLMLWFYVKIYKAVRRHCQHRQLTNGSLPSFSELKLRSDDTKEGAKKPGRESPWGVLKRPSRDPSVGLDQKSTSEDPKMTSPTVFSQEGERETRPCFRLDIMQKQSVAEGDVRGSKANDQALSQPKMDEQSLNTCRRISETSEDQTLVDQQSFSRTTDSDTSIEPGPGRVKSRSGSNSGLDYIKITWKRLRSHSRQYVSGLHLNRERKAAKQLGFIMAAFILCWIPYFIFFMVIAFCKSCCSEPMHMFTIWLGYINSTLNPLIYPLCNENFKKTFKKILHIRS
D(2) dopamine receptor, sequence (P61169 whole entry): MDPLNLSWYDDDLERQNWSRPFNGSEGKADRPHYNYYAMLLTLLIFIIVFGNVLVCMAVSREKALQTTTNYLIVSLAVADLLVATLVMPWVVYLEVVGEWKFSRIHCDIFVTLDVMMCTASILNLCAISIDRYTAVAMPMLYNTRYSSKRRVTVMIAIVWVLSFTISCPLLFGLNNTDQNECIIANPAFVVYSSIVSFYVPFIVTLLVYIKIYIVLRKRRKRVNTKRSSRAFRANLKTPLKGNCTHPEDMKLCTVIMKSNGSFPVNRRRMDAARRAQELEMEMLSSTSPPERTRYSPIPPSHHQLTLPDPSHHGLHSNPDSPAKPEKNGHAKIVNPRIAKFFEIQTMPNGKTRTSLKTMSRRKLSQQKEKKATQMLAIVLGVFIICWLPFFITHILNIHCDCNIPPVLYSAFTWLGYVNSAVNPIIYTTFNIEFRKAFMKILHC

Take `COC(=O)[C@@H](c1ccccc1)[C@@H]1CCCCN1`: the Ki in assay [1] worked out at 103 nM; in assay [2], 1000 nM.
Turning to `O[C@]1(c2ccc(Cl)cc2)c2ccccc2C2=NCCN21` [Mazanor], the affinity in [1] corresponds to a Ki of 8 nM.
Still for that read-out and setting: the result for `NCCc1c[nH]c2ccc(O)cc12` [[3H]-5-HT] reads 1000 nM.
`Fc1ccc(C(OCCN2CCN(CCCc3ccccc3)CC2)c2ccc(F)cc2)cc1` [Vanoxerine]: the Ki at Histamine H1 receptor was 18 nM; at D(2) dopamine receptor, 270 nM; in assay [3], 7000 nM; in [4], > 10000 nM and 8000 nM; in assay [5], 189 nM; in assay [6], above 10000 nM. For the same compound, the Ki in assay [7] was above 10000 nM; in assay [8] it was 3600 nM; at D(1A) dopamine receptor, 1000 nM; in assay [9] it was 3500 nM.
`CN(C)CCCC1(c2ccc(F)cc2)OCc2cc(C#N)ccc21` (stereo not drawn) [CITALOPRAM HYDROBROMIDE]: the Ki (at D(2) dopamine receptor; in assay [3]; in [4]; in assay [6]; in assay [7]; in assay [8]) was above 10000 nM each time. Further, the Ki (at D(1A) dopamine receptor; in [9]) was above 10000 nM throughout.
As to `CN1Cc2c(N)cccc2[C@H](c2ccccc2)C1` [(+/-)-2-Methyl-4-phenyl-1,2,3,4-tetrahydro-isoquinolin-8-ylamine], the Ki is 35 nM on Histamine H1 receptor; above 10000 nM on D(2) dopamine receptor; 11.2 nM in assay [1]; above 10000 nM in assay [3]; above 10000 nM in assay [4]; above 10000 nM in assay [6]. Also, the inhibition constant Ki (in assay [7]; in [8]; at D(1A) dopamine receptor; in assay [9]) was above 10000 nM each time.
`NCCc1ccc(O)c(O)c1`: the Ki in assay [1] and in assay [2] was 1000 nM in each case.
`COc1ccc2c(c1)CN(C)CC2c1ccc(Cl)c(Cl)c1` (stereo not drawn): the Ki in assay [1] is 15.7 nM.
`CN(C)CCCN1c2ccccc2CCc2ccccc21`: the Ki on Histamine H1 receptor was 2 nM; at D(2) dopamine receptor it was 942 nM; in [3] it was 5700 nM; in assay [4] it was above 10000 nM; in [6], above 10000 nM; in assay [7], 2300 nM. The values for the Ki (in [8]; on D(1A) dopamine receptor) were above 10000 nM and 3000 nM, respectively.
Turning to `NCC(O)c1ccc(O)c(O)c1` (stereo not drawn) [Noradrenaline,(+)], the Ki came to 250 nM in assay [1] and 1000 nM in assay [2].
`C[C@H](N)Cc1ccccc1` [beta-aminopropylbenzene]: in [1], the Ki is 59 nM and 58 nM.
With `CC(NC(C)(C)C)C(=O)c1cccc(Cl)c1` (stereo not drawn) [BUPROPION HYDROCHLORIDE], the Ki on D(2) dopamine receptor is above 10000 nM; in [1] it was 940 nM; in assay [3], above 10000 nM; in assay [6], above 10000 nM; in assay [7], above 10000 nM; on D(1A) dopamine receptor it was above 10000 nM. Also, the Ki in [9] was above 10000 nM.
